# Literature values, collected in patent US7049092B1 (priority 1999, dated 2006).
# Biological target: hormone-sensitive lipase
# Conditions: read-out: IC50 (concentration producing 50% inhibition)
smiles,measurement,value
"[Cl][Hg][Cl] [HgCl2 (mercuric chloride), mercuric chloride]",IC50,11 µM
